Experimental data: ChEMBL document CHEMBL1201862, “PubChem BioAssay data set” (2004)
Each block holds one compound with its values, some of them ahead of it. Active and inactive are the calls of the source.

Columns and labels:
[1] = target: Glyceraldehyde-3-phosphate dehydrogenase (Homo sapiens, UniProt P04406)
Bcl-2-related protein A1 [2] = target: T1, Bcl-2-related protein A1 (Mus musculus, UniProt Q07440); test: Bfl-1 binding inhibitors, SAR follow-up, biochemical, fluorescence polarization (AID 1070)
T1 sequence (Q07440 whole entry): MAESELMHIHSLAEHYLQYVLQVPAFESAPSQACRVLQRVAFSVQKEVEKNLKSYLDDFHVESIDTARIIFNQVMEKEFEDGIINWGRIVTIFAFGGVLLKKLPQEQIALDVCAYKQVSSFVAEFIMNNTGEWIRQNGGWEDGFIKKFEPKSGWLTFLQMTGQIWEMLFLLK

Bcl-2-related protein A1 [3] = target: T1, Bcl-2-related protein A1; test: Bfl-1 inhibitors blocking BH3 peptide binding, confirmation, biochemical, TR-FRET, mouse Bfl-1 (AID 621);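 also: TR-FRET binding of GST-Bfl-1 to FITC-labelled Bid peptide via terbium antibody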
[4] = target: Serine/threonine-protein phosphatase PP1-alpha catalytic subunit (Homo sapiens, UniProt P62136); test: PP1 phosphatase inhibitors, dose response, biochemical, fluorescence (AID 2394)
[5] = target: Serine/threonine-protein phosphatase (Homo sapiens, UniProt Q9BPW0); test: PP5 phosphatase inhibitors, dose response, biochemical, fluorescence (AID 2395)
[6] = cytotoxicity toward NIH3T3 fibroblasts, dose response, counter-screen, cell-based, ATP luminescence, mouse fibroblasts (AID 2010); type: functional;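 also: cells exposed to compound for about 90 hours before reading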
INS1 = test: beta cell apoptosis inhibitors, cytokine rescue, dose response, luminescence, retest (AID 449756); type: functional, cell-based; conditions: Rattus norvegicus;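 also: cell death triggered by IL-1 beta plus TNF-alpha plus IFN-gamma mixture; protective hits raise ATP signal compared with cytokine alone wells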
[7] = inhibitors of intracellular T. cruzi replication, confirmation, NIH3T3 host cells, beta-gal luminescence (AID 2044); type: functional, cell-based;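 also: intracellular parasites grown in NIH/3T3 mouse fibroblasts as host cells; luminescent beta-galactosidase reporter signal from transgenic T. cruzi replicating inside host cells; inhibitors lower the luminescence signal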
[8] = target: Sphingosine 1-phosphate receptor 3 (Homo sapiens, UniProt Q99500); test: Dose response cell-based high throughput screening assay for antagonists of the Sphingosine 1-Phosphate Receptor 3 (S1P3). [Related pubchem assays: 1429, 485 ]; type: functional
[9] = target: 5-hydroxytryptamine receptor 1E (Homo sapiens, UniProt P28566); test: Counterscreen assay for S1P3 antagonists: Dose response cell-based high throughput screening assay to identify antagonists of the 5-Hydroxytryptamine Receptor Subtype 1E (5HT1E). [Related pubchem assays: 1429, 485 ]; type: functional
[10] = HepG2 cell cytotoxicity, dose response, cytotoxicity control, plate reader, cherry-pick, antagonist series (AID 743416); type: functional, cell-based
[11] = Luminescence-based counterscreen assay for KLF5 inhibitors: dose response cell-based high throughput screening assay to identify cytotoxic compounds using the IEC-6 intestinal epithelial cell line. [Related pubchem assays: 1700 (Primary screen.), 1834 (Confirmation screen.), 1858 (Summary AID.), 1905 (Counterscreen.)]; type: functional
[12] = LGR2 antagonists, dose response, cell-based, HEK293, CRE-luciferase reporter, cherry pick, set 2 (AID 743343); type: functional;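 also: transfected cells were stimulated with diluted bursicon conditioned medium after compound addition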
[13] = MC4R antagonists, dose response, counter-screen for LGR2 antagonist project, cell-based, plate reader, cherry pick (AID 743444); type: functional;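 also: transfected HEK 293 cells stimulated with alpha-MSH peptide; potency of inhibitors of the alpha-MSH evoked signal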
[14] = A549 cell cytotoxicity, dose response, cytotoxicity control, plate reader, cherry-pick, antagonist series (AID 743412); type: functional, cell-based
[15] = HEK293 cell cytotoxicity, dose response, cytotoxicity control, plate reader, cherry-picked samples (AID 743446); type: functional, cell-based
Bcl-2-like protein 10 = Bcl-2-like protein 10 (Homo sapiens, UniProt Q9HD36); test: Biochemical TR3 FP assay of Bcl-B inhibitor potency, EC50 (AID 1243); type: functional
[16] = target: Dual specificity protein phosphatase 6 (Rattus norvegicus, UniProt Q64346); test: MKP-3 phosphatase inhibitors, primary screen, biochemical, rat enzyme, in vitro (AID 425)
[17] = Luminescence Cell-Based Dose-Confimation HTS to Identify Inhibitors of 5'UTR Stem-Loop Driven Alpha-Synuclein mRNA Translation in H4 Neuroglioblastoma Cells. [Related pubchem assays: 1827 (Project Summary), 1813 (Primary HTS)]; type: functional

Sequence of Serine/threonine-protein phosphatase (Q9BPW0 whole entry): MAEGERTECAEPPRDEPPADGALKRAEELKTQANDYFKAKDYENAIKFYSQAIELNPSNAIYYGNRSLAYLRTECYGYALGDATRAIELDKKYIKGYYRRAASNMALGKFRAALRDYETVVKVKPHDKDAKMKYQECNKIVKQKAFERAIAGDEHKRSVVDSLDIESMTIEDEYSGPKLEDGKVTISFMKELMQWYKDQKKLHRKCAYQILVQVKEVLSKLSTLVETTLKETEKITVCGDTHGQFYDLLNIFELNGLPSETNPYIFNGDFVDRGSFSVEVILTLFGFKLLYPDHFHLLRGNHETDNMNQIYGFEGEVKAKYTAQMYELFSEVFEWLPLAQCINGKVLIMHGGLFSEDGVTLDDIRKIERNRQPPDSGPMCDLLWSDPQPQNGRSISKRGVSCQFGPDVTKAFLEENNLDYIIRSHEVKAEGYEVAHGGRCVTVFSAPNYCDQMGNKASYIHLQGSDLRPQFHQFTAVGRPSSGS
Sequence of Bcl-2-like protein 10 (Q9HD36 whole entry): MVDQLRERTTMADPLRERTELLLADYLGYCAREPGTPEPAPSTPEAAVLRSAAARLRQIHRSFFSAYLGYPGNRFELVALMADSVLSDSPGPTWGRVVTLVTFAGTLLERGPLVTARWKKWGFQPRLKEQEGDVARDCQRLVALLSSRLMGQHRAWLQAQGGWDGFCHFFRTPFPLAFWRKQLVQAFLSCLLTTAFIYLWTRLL
Sequence of 5-hydroxytryptamine receptor 1E (P28566 whole entry): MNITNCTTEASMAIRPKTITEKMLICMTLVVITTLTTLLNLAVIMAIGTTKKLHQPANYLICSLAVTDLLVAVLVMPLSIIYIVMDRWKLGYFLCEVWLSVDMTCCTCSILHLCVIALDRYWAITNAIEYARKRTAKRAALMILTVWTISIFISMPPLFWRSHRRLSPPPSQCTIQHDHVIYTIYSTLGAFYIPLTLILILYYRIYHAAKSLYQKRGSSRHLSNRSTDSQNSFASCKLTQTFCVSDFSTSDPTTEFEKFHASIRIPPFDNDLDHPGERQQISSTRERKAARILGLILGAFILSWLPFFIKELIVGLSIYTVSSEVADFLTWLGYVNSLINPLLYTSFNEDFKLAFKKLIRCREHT
Sequence of Serine/threonine-protein phosphatase PP1-alpha catalytic subunit (P62136 whole entry): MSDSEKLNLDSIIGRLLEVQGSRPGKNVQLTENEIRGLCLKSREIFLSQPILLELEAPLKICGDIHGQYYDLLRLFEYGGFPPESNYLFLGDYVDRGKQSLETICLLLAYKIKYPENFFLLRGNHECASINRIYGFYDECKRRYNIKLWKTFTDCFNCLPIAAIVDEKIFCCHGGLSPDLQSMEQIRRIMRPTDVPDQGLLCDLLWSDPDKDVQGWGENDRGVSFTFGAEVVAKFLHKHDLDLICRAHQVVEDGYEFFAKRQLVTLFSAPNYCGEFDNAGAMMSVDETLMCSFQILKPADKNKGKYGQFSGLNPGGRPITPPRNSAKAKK
Sequence of Sphingosine 1-phosphate receptor 3 (Q99500 whole entry): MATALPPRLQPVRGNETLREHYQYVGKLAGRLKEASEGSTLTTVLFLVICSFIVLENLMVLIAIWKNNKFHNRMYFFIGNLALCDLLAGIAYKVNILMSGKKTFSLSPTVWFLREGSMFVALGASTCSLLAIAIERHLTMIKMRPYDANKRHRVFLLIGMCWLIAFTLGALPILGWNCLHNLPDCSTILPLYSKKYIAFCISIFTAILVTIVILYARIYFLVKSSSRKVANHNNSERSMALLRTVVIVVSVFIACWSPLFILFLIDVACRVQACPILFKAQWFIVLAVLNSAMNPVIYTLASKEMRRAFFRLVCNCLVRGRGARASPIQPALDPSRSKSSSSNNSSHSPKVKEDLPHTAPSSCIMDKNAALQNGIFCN
Sequence of Glyceraldehyde-3-phosphate dehydrogenase (P04406 whole entry): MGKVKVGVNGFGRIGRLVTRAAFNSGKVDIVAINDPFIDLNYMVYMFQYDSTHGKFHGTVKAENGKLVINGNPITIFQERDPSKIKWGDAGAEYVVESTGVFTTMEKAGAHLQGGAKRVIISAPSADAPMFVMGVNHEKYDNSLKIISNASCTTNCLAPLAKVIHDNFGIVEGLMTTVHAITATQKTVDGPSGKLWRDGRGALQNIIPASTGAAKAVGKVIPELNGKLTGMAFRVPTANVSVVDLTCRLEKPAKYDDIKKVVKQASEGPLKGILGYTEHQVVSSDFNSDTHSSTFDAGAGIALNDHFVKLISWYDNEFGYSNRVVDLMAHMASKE
Sequence of Dual specificity protein phosphatase 6 (Q64346 whole entry): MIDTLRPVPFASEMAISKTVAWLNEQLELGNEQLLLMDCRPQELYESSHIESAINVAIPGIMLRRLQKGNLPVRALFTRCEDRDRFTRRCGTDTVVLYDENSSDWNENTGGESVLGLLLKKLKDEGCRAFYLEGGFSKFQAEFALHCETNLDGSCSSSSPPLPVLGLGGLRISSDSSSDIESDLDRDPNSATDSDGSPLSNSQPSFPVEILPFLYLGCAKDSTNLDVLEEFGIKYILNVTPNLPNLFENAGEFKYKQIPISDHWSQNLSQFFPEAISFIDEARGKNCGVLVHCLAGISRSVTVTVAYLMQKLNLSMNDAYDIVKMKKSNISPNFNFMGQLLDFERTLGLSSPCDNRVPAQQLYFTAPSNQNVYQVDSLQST

Structure (SMILES): O=C1C(Cl)=C(N2CCN(c3ccccc3)CC2)C(=O)N1c1ccc(Cl)c(Cl)c1
IC50 [1]: > 100 µM (not active) | IC50 (Bcl-2-related protein A1 [2]): 4.95 µM (active) | IC50 (Bcl-2-related protein A1 [3]): 4.13 µM (active)

Structure (SMILES): O=C(Nc1ccc(OC(F)F)c(Cl)c1)C(c1ccccc1)c1ccccc1
EC50 [6]: > 60 µM (inconclusive) | AC50 (INS1): 8.95 µM (active) | EC50 [7]: 1.29 µM (active) | IC50 [8]: 4.07 µM (active) | IC50 [9]: 1.25 µM (active)

Structure (SMILES): Cc1ccc(C(=O)Nc2nc3ccccc3[nH]2)cc1
AC50 [10]: > 52 µM (inactive) | IC50 [11]: > 13.3 µM (not active) | AC50 [12]: 1.29 µM (active) | AC50 [13]: 1.45 µM (active) | AC50 [14]: 35.2 µM (active) | AC50 [15]: 29.2 µM (active)

Structure (SMILES): CCOC(=O)c1cc2sccc2n1Cc1ccccc1
IC50 [16]: > 100 µM (not active)

Structure (SMILES): CC(C)c1ccc(-n2nnnc2SCc2nc(N)nc(N)n2)cc1
EC50 [17]: > 100 µM (not active)

Second part, the compound after the results:

IC50 [4]: 63.6 µM (not active) | IC50 [5]: 17 µM (not active)
Structure (SMILES): COC(=O)CCC(=O)OC1(C)C(=O)C=C2C=C(C3CC3)N(CC3CC3)C=C2C1=O (centres undefined)

EC50 (Bcl-2-like protein 10): 5.21 µM (active)
Structure (SMILES): Cc1c(Cl)ccc2c1NC(C(=O)O)C1CC=CC21 (centres undefined)
